Assay results reported in US6274568A, “Compounds for altering cell surface sialic acids and methods of use therefor” (priority 1999, dated 2001).

Experiments:
NG108-15 cells = test: O-acetylation state of NeuGc in ManNGcPA-treated NG108-15 cells, thin layer chromatography; format: cell-based, mouse neuroblastoma/rat glioma hybrid; settings: 1 mM, 48 h
Method: O-Acetylated sialic acids from bovine submaxillary mucin served as standards. […] A portion of the organic/aqueous soluble pool (predominantly free sialic acids) was subjected to silicic acid thin layer chromatography using propanol-water (1:1) as developing solvent and resorcinol reagent for detection. Sialic acids released from bovine submaxillary mucin, which contain primarily O-acetylated forms of NeuAc (as well as NeuAc, NeuGc, and O-acetylated forms of NeuGc) were prepared and used as positive controls. Lane 1, bovine submaxillary mucin sialic acids; Lane 2, mucin sialic acids pretreated with concentrated ammonium hydroxide for 2 h at ambient temperature to selectively deplete O-acetyl groups; Lane 3, NeuAc standard; Lane 4, NeuGc standard; Lane 5, extract from ManNGcPA-treated NG108-15 cells. O-Acetylated forms of NeuGc, which are reported to migrate 60-100% farther than the parent NeuGc in this system, appear to be absent from the cell extract.

MAG-Fc chimera = test: MAG-Fc binding to precursor-treated NG108-15 cells by flow cytometry; format: cell-based
Method: Flow cytometry was used to test binding of a soluble MAG-Fc chimera to precursor-treated and control NG108-15 cells. A chimeric protein consisting of the entire extracellular domain of MAG fused via a three amino acid bridge (TGK) to the human Fc domain was produced using the "pIgPlus" vector (Novagen, Madison, Wis.). A PCR fragment coding for the extracellular domain of MAG was prepared using MAG in pCDM8 as template (Yang et al., 1996a), the T7 5' primer […] (SEQ ID NO:1) and […] (SEQ ID NO:2) as the 3' primer. The fragment was cut with BamHI and HindIII and directionally cloned into the pIgPlus vector. The resulting construct was sequenced to confirm its identity, transfected into COS cells, and the resulting MAG-Fc chimera was purified from the culture medium using Protein G affinity chromatography.
For MAG binding studies, NG108-15 cells were cultured in the presence of sialic acid precursors for the indicated times, then were released from culture dishes using hypertonic Ca^2+ /Mg^2+ -free phosphate-buffered saline (Yang et al., Proc. Natl. Acad. Sci. USA., 93:814, 1996) and resuspended (at […]) in 25 mM Hepes-buffered Hanks balanced salt solution (Bashor, Methods Enzymol., 58:119, 1979) containing 5 mg/ml bovine serum albumin. MAG-Fc (6 μg) was added to 100 μl of the same buffer containing 6 μg fluorescein isothiocyanate-labeled goat anti-human Fc (Jackson Immunoresearch, West Grove, Pa.) and incubated on ice for 1 h 45 min with frequent mixing. Cell suspension (100 μl containing 50,000 cells) was added to the premixed antibody solution and the mixture incubated on ice for 45 min. The cells were then centrifuged for 4 sec at 16,000×g and washed three times by resuspension in 200 μl of buffer with bovine serum albumin and centrifugation. The resulting cell pellet was resuspended in 100 μl buffer with bovine serum albumin and flow cytometry was performed on an Epics Profile II cytometer (Coulter Corp, Hialeah, Fla.).
NG108-15 cells, a mouse neuroblastoma/rat glioma hybrid, display many qualities of cholinergic neurons, including neurite outgrowth, synthesis, storage and release of acetylcholine, and functional synapse formation with muscle cells in vitro. Neurite outgrowth from NG108-15 cells is inhibited by MAG (McKerracher et al., Neuron, 13:805, 1994), an interaction which is reversed by pretreatment of the cells with neuraminidase (Schnaar et al., Ann. N.Y. Acad. Sci., 845:92, 1998). […] Binding was quantified by flow cytometry. […]

in vitro = settings: ng108-15 cells
Method: Cell growth rates were determined in control cultures (.box-solid.), in cultures treated with 0.08 mM (.circle-solid.), 0.25 mM (.smallcircle.), or 1 mM (.quadrature.) ManNGcPA, and in cultures treated with 0.25 mM (.tangle-solidup.) or 1 mM (Δ) glucose pentaacetate.
NG108-15 cells were maintained in Dulbecco's modified Eagle's medium (high glucose formulation) containing 5% iron-enriched calf serum, 100 μM hypoxanthine, 16 μM thymidine, and 5 μM aminopterin. […] Both cell types were cultured at 37° C. in a humidified atmosphere of 90% air/10% CO2. For treatment with sialic acid precursors, mannosamine derivatives were diluted into the appropriate medium and filter sterilized. […] In experiments testing ManNGcPA, all cells (control and experimental) were grown in the presence of 0.5% (v/v) DMSO, the carrier for ManNGcPA.

With `CC(=O)OCC(=O)N[C@@H]1C(OC(C)=O)O[C@H](COC(C)=O)[C@@H](OC(C)=O)[C@@H]1OC(C)=O` (some centres unmarked) [ManNGcPA, N-glycolylmannosamine pentaacetate] the “O-acetylated NeuGc in the precursor pool” value (NG108-15 cells) was “no significant proportion of O-acetylated NeuGc”, the “de-O-acetylation prior to or coordinate with metabolism to sialic acid” value (NG108-15 cells) was “apparently complete de-O-acetylation” and the “inhibition of MAG-Fc binding” value (MAG-Fc chimera; 0.25 mM or 1 mM, 96 h) was “≈ 70%”. The “inhibition of specific binding of MAG-Fc” value (MAG-Fc chimera; 1 mM, 144 h, compared to control cells) was 95% and the viability at 70 h, 1000 µM (in vitro) was 76%.
